This is an account of results in patent US4870097A, “Pharmaceutical use of derivatives of tryptophan” (priority 1984, dated 1989).

In the assay the test system is activity of analgesic drugs. Nature of the assay: Hot plate test: potentiation of analgesic drugs. Format: in vivo, rats. Particulars: analgesic alone i.p. (Prop 15, Oxy 50, Asa 100 mg/kg); for Positive Total X/25: 10'-60'. How it is done:
The method is that described by Eddy et al. (J. Pharmac. Exp. Ther. 107, 385 (1953)).
Groups of five male rats having a weight of about 150 g and which have not been fasting are used.
The animals are placed on a metal plate which is on the bottom of a transparent cylinder heated to 55°±1° C. by an azeotropic boiling mixture (1:1 acetone-ethyl formate). The time which passes between the moment at which the animal is placed on the hot plate and the moment at which it licks its feet or tries to jump out of the cylinder is defined as the reaction time. The control reaction time is measured 10 and 5 minutes before the administration of the drugs and 10, 20, 30, 45, 60, 90 minutes afterwards. The animals are left on the plate for a maximum period of 30 seconds.
The response to the administration of the product is considered positive if at least a doubling of the normal reaction time is seen. The results obtained are given in Table 2 which records the groups treated, the dose administered and the stay times on the plate expressed as the number of positive responses over the number treated.
Background: Hot-plate and tail-flick tests time the reaction to a heat stimulus.

With `CC(=O)Oc1ccccc1C(=O)O` [Acetylsalicylic acid, reference compound], the “positive responses over the number treated, 10'” value is listed as 1/5; the “Positive Total X/25” value is 7; the “positive responses over the number treated, 20'” value is given as 2/5; the “positive responses over the number treated, 30'” value is 2/5. For the same compound, the “positive responses over the number treated, 45'” value is 2/5 and the “positive responses over the number treated, 60'” value is 0/5.
Consider `CCCCC1C(=O)N(c2ccccc2)N(c2ccc(O)cc2)C1=O` (stereo not drawn) [Oxyphenylbutazone, reference compound], for which the “positive responses over the number treated, 10'” value is on record as 2/5; the “Positive Total X/25” value is on record as 7; the “positive responses over the number treated, 20'” value is reported as 1/5; the “positive responses over the number treated, 30'” value was 2/5. For the same compound, the “positive responses over the number treated, 45'” value was 2/5 and the “positive responses over the number treated, 60'” value is 0/5.
For `CCC(=O)O[C@](Cc1ccccc1)(c1ccccc1)[C@H](C)CN(C)C` [Propoxyphene, reference compound], the “positive responses over the number treated, 10'” value is recorded as 2/5; the “Positive Total X/25” value amounted to 11; the “positive responses over the number treated, 20'” value is 2/5; the “positive responses over the number treated, 30'” value was 3/5. Besides, the “positive responses over the number treated, 45'” value is given as 3/5 and the “positive responses over the number treated, 60'” value was 1/5.
